Measurements as given in patent publication US9724352B2, “Pyrrolo[2,1-F[1,2,4]triazine compounds, preparation methods and applications thereof” (Shanghai Institute of Materia Medica, Chinese Academy of …, priority 2012, dated 2017).
One block for each compound: values may come before it.

What was measured:
[1] = tested on: human rhabdomyosarcoma Rh30 cells; assay: Proliferation of Rh30 cells (sulforhodamine B); format: cell-based; conditions: for IC50: Homo sapiens, Rh30, 72 h, read-out: IC50 against proliferation of Rh30 cells; for inhibitory activity on Rh30 cell proliferation (in words): 72 h
Protocol: Rh30 cells were seeded in a 96-well plate at 3000 cells/well. After the cells adhered, tested compounds at concentration of 10, 3, 1, 0.3, or 0.1 μM were added, and incubated for 72 h. The culture media were discarded and cells were fixed with trichloroacetic acid. After washed with distilled water for five times and dried, sulfonylrhodamine B was added. After washed with 1% glacial acetic acid for five times and dried, trihydroxymethylaminomethane buffer was added. OD value was measured by using a microplate reader at a wavelength of 560 nm.

[2] = tested on: human neuroglioma U87-MG xenograft; assay: Growth of U87-MG xenograft subcutaneously transplanted in nude mouse; format: in vivo; conditions: for growth of subcutaneously transplanted U87MG xenograft (in words): p.o. once a day for three weeks
Protocol: Well-developed tumors in nude mice were cut into 1.5 mm3 fragments and transplanted s.c. into the right flank of nude mice under sterile conditions. The diameters of subcutaneously transplanted tumours in nude mice were measured with a vernier calipe. […] Control groups were given the same amount of blank solvent, and treatment groups received tested compounds (p.o.). Compounds were administrated once a day for three weeks. Throughout the experiment, the sizes of the tumours were measured twice per week and meanwile the body weights of mice were weighed. The tumour volume (TV) was calculated as follows: TV=½×a×b2, wherein a and b represent the length and width, respectively. The individual relative tumour volume (RTV) was calculated as follows: RTV=Vt/V0, where V0 is the volume at the beginning of the treatment and Vt is the volume measured every time. Evaluation index of antitumor activity was relative tumor proliferation rate T/C (%), the calculation formula of which was as follows: T/C (%)=(TRTV/CRTV)×100%, TRTV:RTV of treatment group; CRTV:RTV of negative control group.

Structure (SMILES): CN(C)Cc1cc2c(N3CCOCC3)nc(-c3cccc(CS(C)(=O)=O)c3)nn2c1 [Compound I-25, N,N-dimethyl-1-(2-(3-((methylsulfonyl)methyl)phenyl)-4-morpholinopyrrolo[2,1-f][1,2,4]triazin-6-yl)methanamine]
inhibitory activity on Rh30 cell proliferation (in words) [1]: tens of nanomolar
IC50 [1]: 39 nM

Structure (SMILES): CN(C)Cc1cc2c(N3CCOCC3)nc(-c3cccc(CNS(C)(=O)=O)c3)nn2c1 [Compound I-26, N-(3-(6-((dimethylamino)methyl)-4-morpholinopyrrolo[2,1-f][1,2,4]triazin-2-yl)benzyl)methanesulfonamide]
IC50 [1]: 240 nM

Structure (SMILES): CS(=O)(=O)N1CCN(Cc2cc3c(N4CC5CCC(C4)O5)nc(-c4cnc(N)cc4C(F)(F)F)nn3c2)CC1 [Compound I-29, 5-(4-(8-oxa-3-azabicyclo[3.2.1]octan-3-yl)-6-((4-(methylsulfonyl)piperazin-1-yl)methyl)pyrrolo[2,1-f][1,2,4]triazin-2-yl)-4-(trifluoromethyl)pyridin-2-amine]
IC50 [1]: 3420 nM

Structure (SMILES): CS(=O)(=O)N1CCN(Cc2cc3c(N4CCOCC4)nc(-c4cnc(NC(=O)Oc5ccccc5)cc4C(F)(F)F)nn3c2)CC1 [Compound I-31, Phenyl (5-(6-((4-(methylsulfonyl)piperazin-1-yl)methyl)-4-morpholinopyrrolo[2,1-f][1,2,4]triazin-2-yl)-4-(trifluoromethyl)pyridin-2-yl)carbamate]
IC50 [1]: 5060 nM

Structure (SMILES): C[C@H]1COCCN1c1nc(-c2cnc(N)cc2C(F)(F)F)nn2cc(CN3CCN(S(C)(=O)=O)CC3)cc12 [Compound I-34, (S)-5-(4-(3-methylmorpholino)-6-((4-(methylsulfonyl)piperazin-1-yl)methyl)pyrrolo[2,1-f][1,2,4]triazin-2-yl)-4-(trifluoromethyl)pyridin-2-amine]
IC50 [1]: 530 nM

Structure (SMILES): CCNC(=O)Nc1cc(C(F)(F)F)c(-c2nc(N3CCOCC3)c3cc(CN4CCN(S(C)(=O)=O)CC4)cn3n2)cn1.CS(=O)(=O)O [I-30 (mesylate), 1-Ethyl-3-(5-(6-((4-(methylsulfonyl)piperazin-1-yl)methyl)-4-morpholinopyrrolo[2,1-f] [1,2,4]triazin-2-yl)-4-(trifluoromethyl)pyridin-2-yl)urea mesylate]
Relative tumor proliferation rate T/C ([2]; 50 mg/kg p.o. once a day, d0): 100.00%
Relative tumor proliferation rate T/C ([2]; 50 mg/kg p.o. once a day, d3): 67.89%
Relative tumor proliferation rate T/C ([2]; 50 mg/kg p.o. once a day, d7): 54.35%
Relative tumor proliferation rate T/C ([2]; 50 mg/kg p.o. once a day, d10): 60.45%
Relative tumor proliferation rate T/C ([2]; 50 mg/kg p.o. once a day, d14): 42.46%
Relative tumor proliferation rate T/C ([2]; 50 mg/kg p.o. once a day, d17): 41.64%
Relative tumor proliferation rate T/C ([2]; 50 mg/kg p.o. once a day, d21): 37.26%
growth of subcutaneously transplanted U87MG xenograft (in words) [2]: significant inhibitory effects

Structure (SMILES): COC(=O)Nc1cc(C(F)(F)F)c(-c2nc(N3CCOCC3)c3cc(CN4CCN(S(C)(=O)=O)CC4)cn3n2)cn1.CS(=O)(=O)O [I-33 (mesylate), Methyl (5-(6-((4-(methylsulfonyl)piperazin-1-yl)methyl)-4-morpholinopyrrolo[2,1-f][1,2,4]triazin-2-yl)-4-(trifluoromethyl)pyridin-2-yl)carbamate mesylate]
Relative tumor proliferation rate T/C ([2]; 20 mg/kg p.o. once a day, d0): 100.00%
Relative tumor proliferation rate T/C ([2]; 20 mg/kg p.o. once a day, d3): 84.69%
Relative tumor proliferation rate T/C ([2]; 20 mg/kg p.o. once a day, d7): 65.90%
Relative tumor proliferation rate T/C ([2]; 20 mg/kg p.o. once a day, d10): 55.24%
Relative tumor proliferation rate T/C ([2]; 20 mg/kg p.o. once a day, d14): 37.48%
Relative tumor proliferation rate T/C ([2]; 20 mg/kg p.o. once a day, d17): 31.92%
Relative tumor proliferation rate T/C ([2]; 20 mg/kg p.o. once a day, d21): 32.61%
Relative tumor proliferation rate T/C ([2]; 50 mg/kg p.o. once a day, d0): 100.00%
Relative tumor proliferation rate T/C ([2]; 50 mg/kg p.o. once a day, d3): 82.76%
Relative tumor proliferation rate T/C ([2]; 50 mg/kg p.o. once a day, d7): 59.61%
Relative tumor proliferation rate T/C ([2]; 50 mg/kg p.o. once a day, d10): 54.74%
Relative tumor proliferation rate T/C ([2]; 50 mg/kg p.o. once a day, d14): 36.93%
Relative tumor proliferation rate T/C ([2]; 50 mg/kg p.o. once a day, d17): 29.89%
Relative tumor proliferation rate T/C ([2]; 50 mg/kg p.o. once a day, d21): 25.65%
growth of subcutaneously transplanted U87MG xenograft (in words) [2]: significantly inhibited the growth

More lines, main results first:

IC50 [1]: 400 nM
Structure (SMILES): CN(C)Cc1cc2c(N3CCOCC3)nc(-c3ccc(NC(=O)Nc4ccc(F)cc4)cc3)nn2c1 [Compound I-4, 1-[4-(6-dimethylaminomethyl-4-morpholinopyrrolo[2,1-f][1,2,4]triazin-2-yl)phenyl]-3-(p-fluorophenyl)urea]

IC50 [1]: 1240 nM
Structure (SMILES): CN(C)Cc1cc2c(N3CCOCC3)nc(-c3ccc(NC(=O)Nc4ccc(Cl)cc4)cc3)nn2c1 [Compound I-5, 1-[4-(6-dimethylaminomethyl-4-morpholinopyrrolo[2,1-f][1,2,4]triazin-2-yl)phenyl]-3-(p-chlorophenyl)urea]

IC50 [1]: 1360 nM
Structure (SMILES): CN(C)Cc1cc2c(N3CCOCC3)nc(-c3ccc(NC(=O)Nc4cccc(Cl)c4)cc3)nn2c1 [Compound I-6, 1-(3-chlorophenyl)-3-(4-(6-((dimethylamino)methyl)-4-morpholinopyrrolo[2,1-f][1,2,4]triazin-2-yl)phenyl)urea]

IC50 [1]: 990 nM
Structure (SMILES): Cc1ccc(NC(=O)Nc2ccc(-c3nc(N4CCOCC4)c4cc(CN(C)C)cn4n3)cc2)cc1 [Compound I-9, 1-(4-(6-((dimethylamino)methyl)-4-morpholinopyrrolo[2,1-f][1,2,4]triazin-2-yl)phenyl)-3-(p-tolyl)urea]

IC50 [1]: 500 nM
Structure (SMILES): CN(C)Cc1cc2c(N3CCOCC3)nc(-c3ccc(NC(=O)Nc4ccc(C(=O)N(C)C)cc4)cc3)nn2c1 [Compound I-14, 4-(3-(4-(6-((dimethylamino)methyl)-4-morpholinopyrrolo[2,1-f][1,2,4]triazin-2-yl)phenyl)ureido)-N,N-dimethylbenzamide]

IC50 [1]: 74 nM
Structure (SMILES): CN(C)Cc1cc2c(N3CCOCC3)nc(-c3cccc(CO)c3)nn2c1 [Compound I-24, (3-(6-((dimethylamino)methyl)-4-morpholinopyrrolo[2,1-f][1,2,4]triazin-2-yl)phenyl)methanol]
inhibitory activity on Rh30 cell proliferation (in words) [1]: tens of nanomolar
